The nature of this data set: Relative solubility by turbidity in aqueous buffers (pH 1.5, 4.5, 6.8, 7.4). The following applies: for turbidity threshold (L, M, H) 1.4: pH 1.5 buffer (SGF); for turbidity threshold (L, M, H) 4.5: pH 4.5 buffer (SIF); for turbidity threshold (L, M, H) 6.8: pH 6.8 buffer (SIF); for turbidity threshold (L, M, H) 7.4: pH 7.4 buffer (HEPES). The class given is physicochemical. The procedure, abridged:
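2-fold DMSO dilution series from 25 mM stocks were added to SGF (0.5M NaCl, pH 1.5), SIF (0.05M NaH2PO4, pH 4.5/6.8) or HEPES (10 mM, 150 mM NaCl, pH 7.4). Absorbance at 490, 535 and 650 nm; value is the concentration crossing OD 0.01, averaged over wavelengths. Low <31.3 μM, moderate 31.3–250 μM, high >250 μM.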

On to `CCCS(=O)(=O)Nc1ccc(F)c(C(=O)c2c[nH]c3ncc(-c4ccc5nn(C)cc5c4)cc23)c1F` [P-0010, Propane-1-sulfonic acid {2,4-difluoro-3-[5-(2-methyl-2H-indazol-5-yl)-1H-pyrrolo[2,3-b]pyridine-3-carbonyl]-phenyl}-amide], for which the “turbidity threshold (L, M, H) 1.4” value is on record as “L (low solubility if the threshold concentration is <31.3 μM)”; the “turbidity threshold (L, M, H) 4.5” value is “L (low solubility if the threshold concentration is <31.3 μM)”; the “turbidity threshold (L, M, H) 6.8” value is “L (low solubility if the threshold concentration is <31.3 μM)”; the “turbidity threshold (L, M, H) 7.4” value is given as “L (low solubility if the threshold concentration is <31.3 μM)”.

On to `CCCS(=O)(=O)Nc1ccc(F)c(C(=O)c2c[nH]c3ncc(-c4ccc5cn(C)nc5c4)cc23)c1F` [P-0011, Propane-1-sulfonic acid {2,4-difluoro-3-[5-(2-methyl-2H-indazol-6-yl)-1H-pyrrolo[2,3-b]pyridine-3-carbonyl]-phenyl}-amide], for which the “turbidity threshold (L, M, H) 1.4” value is “L (low solubility if the threshold concentration is <31.3 μM)”; the “turbidity threshold (L, M, H) 4.5” value is recorded as “L (low solubility if the threshold concentration is <31.3 μM)”; the “turbidity threshold (L, M, H) 6.8” value is reported as “M (moderate solubility if the threshold concentration is 31.3 μM to 250 μM)”; the “turbidity threshold (L, M, H) 7.4” value is reported as “L (low solubility if the threshold concentration is <31.3 μM)”.

On to `CCCS(=O)(=O)Nc1ccc(F)c(C(=O)c2c[nH]c3ncc(-c4ccc5[nH]ccc5c4)cc23)c1F` [P-0012, Propane-1-sulfonic acid {2,4-difluoro-3-[5-(1H-indol-5-yl)-1H-pyrrolo[2,3-b]pyridine-3-carbonyl]-phenyl}-amide], for which the “turbidity threshold (L, M, H) 1.4” value is listed as “L (low solubility if the threshold concentration is <31.3 μM)”; the “turbidity threshold (L, M, H) 4.5” value is “L (low solubility if the threshold concentration is <31.3 μM)”; the “turbidity threshold (L, M, H) 6.8” value is recorded as “L (low solubility if the threshold concentration is <31.3 μM)”; the “turbidity threshold (L, M, H) 7.4” value is reported as “L (low solubility if the threshold concentration is <31.3 μM)”.

`CCCS(=O)(=O)Nc1ccc(F)c(C(=O)c2c[nH]c3ncc(-c4cccc5nn(C)cc45)cc23)c1F` [P-0015, Propane-1-sulfonic acid {2,4-difluoro-3-[5-(2-methyl-2H-indazol-4-yl)-1H-pyrrolo[2,3-b]pyridine-3-carbonyl]-phenyl}-amide]: the “turbidity threshold (L, M, H) 1.4” value is “L (low solubility if the threshold concentration is <31.3 μM)”; the “turbidity threshold (L, M, H) 4.5” value was “L (low solubility if the threshold concentration is <31.3 μM)”; the “turbidity threshold (L, M, H) 6.8” value is given as “L (low solubility if the threshold concentration is <31.3 μM)”; the “turbidity threshold (L, M, H) 7.4” value was “L (low solubility if the threshold concentration is <31.3 μM)”.

For `CCCS(=O)(=O)Nc1ccc(F)c(C(=O)c2c[nH]c3ncc(-c4cnn(C5CCNCC5)c4)cc23)c1F` [P-1002, Propane-1-sulfonic acid {2,4-difluoro-3-[5-(1-piperidin-4-yl-1H-pyrazol-4-yl)-1H-pyrrolo[2,3-b]pyridine-3-carbonyl]-phenyl}-amide], the “turbidity threshold (L, M, H) 1.4” value is “M (moderate solubility if the threshold concentration is 31.3 μM to 250 μM)”; the “turbidity threshold (L, M, H) 4.5” value was “M (moderate solubility if the threshold concentration is 31.3 μM to 250 μM)”; the “turbidity threshold (L, M, H) 6.8” value is recorded as “L (low solubility if the threshold concentration is <31.3 μM)”; the “turbidity threshold (L, M, H) 7.4” value is reported as “M (moderate solubility if the threshold concentration is 31.3 μM to 250 μM)”.

In the case of `O=C(c1c(F)ccc(NS(=O)(=O)c2ccc(C(F)(F)F)cc2)c1F)c1c[nH]c2ncc(-c3cnn(C4CCNCC4)c3)cc12` [P-1004, N-{2,4-Difluoro-3-[5-(1-piperidin-4-yl-1H-pyrazol-4-yl)-1H-pyrrolo[2,3-b]pyridine-3-carbonyl]-phenyl}-4-trifluoromethyl-benzenesulfonamide], the “turbidity threshold (L, M, H) 1.4” value is “L (low solubility if the threshold concentration is <31.3 μM)”; the “turbidity threshold (L, M, H) 4.5” value is “L (low solubility if the threshold concentration is <31.3 μM)”; the “turbidity threshold (L, M, H) 6.8” value was “L (low solubility if the threshold concentration is <31.3 μM)”; the “turbidity threshold (L, M, H) 7.4” value was “L (low solubility if the threshold concentration is <31.3 μM)”.

`Cc1ccc(-c2cnc3[nH]cc(C(=O)c4c(F)ccc(NS(=O)(=O)c5cc(F)ccc5F)c4F)c3c2)cn1` [P-1408, N-{2,4-Difluoro-3-[5-(6-methyl-pyridin-3-yl)-1H-pyrrolo[2,3-b]pyridine-3-carbonyl]-phenyl}-2,5-difluoro-benzenesulfonamide]: the “turbidity threshold (L, M, H) 1.4” value was “M (moderate solubility if the threshold concentration is 31.3 μM to 250 μM)”; the “turbidity threshold (L, M, H) 4.5” value is “L (low solubility if the threshold concentration is <31.3 μM)”; the “turbidity threshold (L, M, H) 6.8” value was “L (low solubility if the threshold concentration is <31.3 μM)”; the “turbidity threshold (L, M, H) 7.4” value is “L (low solubility if the threshold concentration is <31.3 μM)”.

In the case of `Cc1ncc(-c2cnc3[nH]cc(C(=O)c4c(F)ccc(NS(=O)(=O)c5cc(F)ccc5F)c4F)c3c2)cn1` [P-1503, N-{2,4-Difluoro-3-[5-(2-methyl-pyrimidin-5-yl)-1H-pyrrolo[2,3-b]pyridine-3-carbonyl]-phenyl}-2,5-difluoro-benzenesulfonamide], the “turbidity threshold (L, M, H) 1.4” value is reported as “L (low solubility if the threshold concentration is <31.3 μM)”; the “turbidity threshold (L, M, H) 4.5” value is “L (low solubility if the threshold concentration is <31.3 μM)”; the “turbidity threshold (L, M, H) 6.8” value is “L (low solubility if the threshold concentration is <31.3 μM)”; the “turbidity threshold (L, M, H) 7.4” value is given as “M (moderate solubility if the threshold concentration is 31.3 μM to 250 μM)”.

Source of the values: patent US9440969B2, “Compounds and methods for kinase modulation, and indications therefor” (PLEXXIKON INC., priority 2009, dated 2016).
